For experiment [1], the system named is S. mutans (ATCC No. 25715). Description: MBC against S. mutans. It counts as cell-based. The settings on record: Streptococcus mutans, ATCC25715; kills at least 99.9% of initial inoculum. The protocol: (§1) Another method for evaluating the efficacy of LAE and MBE against salivary bacteria is by determining the minimum bactericidal concentration (MBC). One suitable method for determining MBC is described in U.S. Pat. No. 7,470,442. Briefly, the MBC is determined using the 96-well microtiter plate serial dilutions as described above for the MIC test. Serial dilutions of cultures in wells showing no visible growth are performed and 10 microliters of culture are plated in triplicate on blood agar plates. Viable colonies are scored after incubation of the plates for 48 hours at 37° C. For each test bacterium, the number of CFU/ml is determined in the initial inoculum. The MBC is defined as the lowest concentration of a test compound that killed at least 99.9% of the cells present in the initial inoculum. […] The MBC of MBE and LAE against the four oral bacteria described supra was determined using the MBC protocol set forth below. The effectiveness of MBE on total salivary bacteria was evaluated using whole saliva. The MBC was determined by serial dilutions as described above for the MIC test. […] Viable colonies were scored after incubation of the plates for 48 hours at 37° C. For each test bacterium, the number of CFU/ml was determined in the initial inoculum. […]

In experiment [2] the test system is S. sobrinus (ATCC 33478). Description: MIC against S. sobrinus. The note with it: Streptococcus sobrinus, ATCC33478; 48 hours, 37° C., turbidity <0.05 absorbance at 660 nm. Type of experiment: cell-based. The source says: (§2) One method of evaluating the efficacy of LAE and MBE against salivary bacteria is by determining the minimum inhibitory concentration (MIC). One suitable method for determining MIC is described in U.S. Pat. No. 7,470,442, which is herein incorporated by reference. Briefly, chlorhexidine is used as a positive control and sterile water is used as a negative control. Methanol and Tween 80 are used as a solvent for MBE. Tween 80 is the common name for Polysorbate 80. Ninety-six-well microtiter plates are used for this study. Each well contained 5×10^5 CFU/ml of bacteria, serially diluted agents and bacterial growth medium. All bacterial cultures are incubated at 37° C. and stationary. Bacterial growth is estimated spectrophotometrically at 660 nm, after 48 hours.
(§3) S. mutans (ATCC No. 25715), S. sobrinus (ATCC 33478), S. salivarius (ATCC 13419) and F. nucleatum (ATCC No. 10953) were purchased from American Type Culture Center (ATCC, MD). S. mutans, S. sobrinus, and S. salivarius were incubated for 24 hours in Schaedler broth containing 1 ppm vitamin K and 10 ppm hemin. F. nucleatum was incubated anaerobically for 48 hrs. […]
(§4) The MIC of LAE and MBE against the four oral bacteria described supra was determined. The effectiveness of MBE and LAE on total salivary bacteria was evaluated using whole saliva. […]

In experiment [3] the test system is S. salivarius (ATCC 13419). Description: MBC against S. salivarius. It counts as cell-based. The settings on record: Streptococcus salivarius, ATCC13419; kills at least 99.9% of initial inoculum. The procedure: as §1
Experiment [4] relates to total salivary bacteria (whole saliva). Description: MIC and FIC Index against total salivary bacteria (whole saliva). It counts as cell-based, human.
Source text: as §2
For testing total salivary bacteria (whole saliva), 30 ml of saliva was collected from a minimum of 3 healthy human volunteers by chewing a standard gum base. The freshly collected saliva was vortexed briefly and directly added to nutrient broth.
A 1% (w/v) solution of MBE powder (95% magnolol, 5% honokiol, Honsea Sunshine Biotech Co., Ltd., Guangzhou, China) in 100% ethanol was prepared, and used in the current example.
LAE-CF (containing 99% pure LAE) was obtained from Vedeqsa of Barcelona, Spain, and used in the current example.
The MIC of LAE and MBE against the four oral bacteria described supra was determined. The effectiveness of MBE and LAE on total salivary bacteria was evaluated using whole saliva.
Chlorhexidine was used as a positive control and sterile water was used as a negative control. MBE was dissolved in ethanol to produce a working solution containing 1% of MBE. It was added to Shaedler broth that contained 10 ppm of Hemin, 1 ppm of Vitamin K and a minimum of 1×10^6 CFU/ml of bacterial strains. […]
Calculation of the FIC is disclosed in U.S. Pat. No. 7,074,447, which is herein incorporated by reference. Briefly, the FIC Index is calculated according to the following formula: FIC=[QA/Qa+QB/Qb] where […]

Experiment [5] concerns S. mutans (ATCC No. 25715). Put plainly: MIC against S. mutans. Type of experiment: cell-based. The note with it: Streptococcus mutans, ATCC25715; 48 hours, 37° C., turbidity <0.05 absorbance at 660 nm.
Source text: as §2, §3, §4

Experiment [6] has as its system S. sobrinus (ATCC 33478). Description: MBC against S. sobrinus. It counts as cell-based. The settings on record: Streptococcus sobrinus, ATCC33478; kills at least 99.9% of initial inoculum. The protocol: as §1
The subject of experiment [7] is F. nucleatum (ATCC No. 10953). Description: MBC against F. nucleatum. It counts as cell-based. The settings on record: Fusobacterium nucleatum, ATCC10953; kills at least 99.9% of initial inoculum. The protocol:
as §1

Experiment [8] relates to F. nucleatum (ATCC No. 10953). Description: MIC against F. nucleatum. It counts as cell-based. The settings on record: Fusobacterium nucleatum, ATCC10953; 48 hours, 37° C., turbidity <0.05 absorbance at 660 nm.
Source text: as §2, §3, §4

Experiment [9] has as its system S. salivarius (ATCC 13419). Description: MIC against S. salivarius. The settings on record: Streptococcus salivarius, ATCC13419; 48 hours, 37° C., turbidity <0.05 absorbance at 660 nm. It counts as cell-based.
Source text: as §2, §3, §4

Converted amounts (≈) assume the structure as drawn.

In the case of `CCCCCCCCCCCC(=O)N[C@@H](CCCNC(=N)N)C(=O)OCC` [LAE-CF, L-arginine, N^α-lauroyl ethyl ester], the MBC (in [1]; in [3]; against S. sobrinus (ATCC 33478) [6]; in experiment [7]) was 12.5 µg/mL (≈ 32.5 µM) throughout. In addition, the MIC in the experiment with S. sobrinus (ATCC 33478) [2] is 6.3 µg/mL (≈ 16.4 µM); in experiment [5], 6.3 µg/mL (≈ 16.4 µM); in experiment [8], 12.5 µg/mL (≈ 32.5 µM); in [9], 6.3 µg/mL (≈ 16.4 µM). The “MIC Whole Saliva” value in experiment [4] (48 hours, 37° C., turbidity <0.05 absorbance at 660 nm) is listed as 50 ppm. Also, the “MIC (ppm) on total salivary bacteria, component alone” value in experiment [4] (Table 3, single agent) was found to be 50 ppm. In addition, the FIC in [4] (total salivary bacteria, FIC<1 synergistic, 1≤FIC≤2 additive, 2<FIC antagonistic) came out at 1.

For orientation: MBC means the smallest concentration meeting the test's criterion for killing. Low values mean greater bactericidal potency, high ones weaker bactericidal potency. What is called MIC is the lowest concentration that inhibits growth of the organism.

(Values after US10485746B2, “Synergistic antibacterial effects of magnolia bark extract and L-arginine, Nα-lauroyl ethyl ester on salivary bacteria” (WM. WRIGLEY JR. COMPANY, priority 2015, dated 2019).)
